Experimental data taken from patent US20140005275A1, “TOPICAL APPLICATION OF 1-HYDROXYL 3,5-BIS(4'HYDROXYL STYRYL)BENZENE” (priority 2012, published 2014).

How the values were obtained:
[1] = tested on: NF-kB luciferase promoter; assay: NF-κB INHIBITION TEST (NF-kB luciferase reporter, TNFα-stimulated H9c2 cells); assay type: cell-based, Rat; conditions: TNFα 100 ng/ml, versus TNFα + Vehicle (0.1% DMSO)
Protocol: NFκB-INHIBITION TESTS were performed on various concentrations of 1-hydroxyl 3,5-bis(4′hydroxyl styryl)benzene and a vehicle control (DMSO). The 1-hydroxyl 3,5-bis(4′hydroxyl styryl)benzene was prepared as described in U.S. Pat. No. 7,745,670. The NF-κB INHIBITION TEST was conducted as follows. Rat cardiac myoblasts H9c2 cells were purchased from ATCC (Manassas, Va.). Cultures were maintained in Dulbecco's modified Eagle's medium (DMEM, Invitrogen Life Technologies, Carlsbad, Calif.) supplemented with 10% fetal bovine serum, 100 units/ml penicillin, and 50 ug/ml streptomycin (Invitrogen life technologies, Carlsbad, Calif.). 1×10^4 cells grown in 96-well plates were transiently transfected with 0.45 ug total DNA per well using Lipofectamine 2000 (Invitrogen life technologies, Carlsbad, Calif.). In all transfections, a construct with the thymidine kinase promoter and the Renilla luciferase reporter gene (pRL-TK, Promega, Madison Wis.) was included as an internal control in addition to the NF-kB luciferase promoter. One day after transfection, cells were treated with the indicated samples (in DMSO as vehicle) at indicated concentrations and stimulated with 100 ng/mL of Tumor Necrosis Factor-α (TNFα, Sigma-Aldrich, St Louis, Mo.) for approximately 24 hours before they were lysed for luciferase assays, using Dual-Luciferase Reporter System from Promega (Madison, Wis.), following manufacturer's protocol. Briefly, the firefly luciferase activity was measured first (representing NF-kB promoter activity), followed by the renilla luciferase (internal control), using luminometer LMAX, from Molecular Devices (Sunnyvale, Calif.). The ratio of these two luciferase activities (RLU) was used to evaluate the activity of each promoter: NF-κB Inhibition=[1−(RLUsample/RLUcontrol)]*100 where RLUsample and RLUcontrol are the normalized luciferase activity ratios of the sample and control, respectively. The results are shown in Table 1, in which NF-kB Gene Reporter Activation (Luminescence, L) is reported. Percent NF-kB Inhibition is also reported.

IL-8 cytokine release = assay: Anti-inflammatory activity: IL-8 cytokine release from epidermal equivalents after solar UV exposure; assay type: cell-based, human; conditions: for Change over vehicle alone (Normalized to 100) / % inhibition over UV treatment: IL-8 release; for Change over vehicle alone (Normalized to 100): 2 h before UV 70 kJ/m^2, 24 hours; for % inhibition over UV treatment: UV-exposed epidermal equivalents; for UV-induced inflammation (result in words): summary of Table 2
Protocol: The topical anti-inflammatory activities of 1-hydroxyl 3,5-bis(4′hydroxyl styryl)benzene and its piperazine salt were evaluated as follows.
Epidermal equivalents (EPI 200 HCF), multilayer and differentiated epidermis consisting of normal human epidermal keratinocytes, were purchased from MatTek (Ashland, Mass.). Upon receipt, epidermal equivalents were incubated for 24 hours at 37° C. in maintenance medium without hydrocortisone. Equivalents were topically treated (2 mg/cm^2) with 1-hydroxyl 3,5-bis(4′hydroxyl styryl)benzene thereof in a 70:30 Ethanol-Propylene glycol vehicle two hours before exposure to solar ultraviolet light (1000W-Oriel solar simulator equipped with a 1-mm Schott WG 320 filter; UV dose applied: 70 kJ/m^2 as measured at 360 nm). The equivalents were incubated for 24 hours at 37° C. with maintenance medium then supernatants were analyzed for IL-8 cytokine release using commercially available kits (Millipore Corp., Billerica, Mass.).

Collagen1A = assay: Induction of Collagen1A gene expression in primary human dermal fibroblasts (quantitative PCR); assay type: cell-based; conditions: for Collagen1A Normalized Fold-change in PCR (Mean): 0.1 ug/mL, 48 hr, normalized to GAPDH, from untreated
Protocol: (§1) Primary human dermal fibroblasts (Lifeline Cell Technologies, Frederick, Md.) were grown until confluence in DMEM media (Invitrogen/Life Technologies, Carlsbad, Calif.) with 10% FBS and 1% Penicillin-Streptomycin on 24 well tissue culture plates, followed by treatment with 1-hydroxyl 3,5-bis(4′hydroxyl styryl)benzene (0.1 ug/mL) with and without TNF-a for 48 hr. Post-treatment, cells were lysed using RLT buffer and total RNA was isolated using the RNeasy Mini Kit (Qiagen, Valencia, Calif.). Quantitative PCR was performed using the Gene Amp PCR System 9700 and 7500 Real Time PCR System cycler (Applied Biosystems)/Life Technologies, Carlsbad, Calif.). Elastin (Qiagen) and Collagenlal primers (custom sequence-sense: 5′-TCC-CCA-GCT-GTC-TTA-TGG-CT-3′ and anti-sense: 5′-CAG-GCA-CGG-AAA-TTC-CTC-C-3′) were used. The housekeeping gene GAPDH was used for normalization (custom primer sequence: F 5′-ATC-TCT-GCC-CCC-TCT-GCT-G-3′ and R 5′-ATG-GTT-CAC-ACC-CAT-GAC-GA-3′; Invitrogen/Life Technologies, Carlsbad, Calif.). Fold-changes in PCR (normalized to GAPDH) were calculated from untreated.

Elastin = assay: Induction of Elastin gene expression in primary human dermal fibroblasts (quantitative PCR); assay type: cell-based; conditions: for Elastin Normalized Fold-change in PCR (Mean): 0.1 ug/mL, 48 hr, normalized to GAPDH, from untreated
Protocol: as §1

MMP-9 = assay: Inhibition of TNF-α-induced MMP-9 levels in epidermal equivalents; assay type: cell-based, human; conditions: for Mean of MMP-9 Release: 2 hours before TNF-α (100 ng/mL), 48 hours
Protocol: The ability of 1-hydroxyl 3,5-bis(4′hydroxyl styryl)benzene to inhibit TNF-a induced MMP-9 levels was tested at different concentrations as follows. The formation of TNF-α induced MMP-9 is involved in the undesirable breakdown of extracellular matrix in human skin.
Epidermal equivalents (EPI 200 HCF) were purchased from MatTek (Ashland, Mass.). Upon receipt, the epidermal equivalents were incubated for 24 hours at 37° C. in maintenance medium without hydrocortisone. The equivalents were topically treated (2 mg/cm^2) with 1-hydroxyl 3,5-bis(4′hydroxyl styryl)benzene extracts in a 70% ethanol/30% propylene glycol vehicle 2 hours before treatment with TNF-α (100 ng/mL). the equivalents were incubated for 48 hours at 37° C. with maintenance medium then supernatants were analyzed for MMP-9 using commercially available kits (R&D Systems, Minneapolis, Minn.).

[2] = 0.5% topical (2 mg/cm^2) in 70:30 Ethanol-Propylene glycol
[3] = 1% topical (2 mg/cm^2) in 70:30 Ethanol-Propylene glycol

With `Oc1ccc(/C=C/c2cc(O)cc(/C=C/c3ccc(O)cc3)c2)cc1` [1-Hydroxyl 3,5-bis(4′hydroxylstyryl)benzene] the “Percent NF-kB Inhibition” value ([1]; 0.2 ug/ml) was 0.5%, the “Percent NF-kB Inhibition” value ([1]; 0.5 ug/ml) was 22.1% and the “Percent NF-kB Inhibition” value ([1]; 1 ug/ml) was 51.7%. The “Percent NF-kB Inhibition” value ([1]; 2 ug/ml) was 71.0%, the “Percent NF-kB Inhibition” value ([1]; 4 ug/ml) was 96.1% and the “Change over vehicle alone (Normalized to 100)” value (“Change … (Normalized to 100)” for short) (IL-8 cytokine release; [2]) was 82 ± 21. The “% inhibition over UV treatment” value (IL-8 cytokine release; 0.5% topical) was 39%, the “Change … (Normalized to 100)” value (IL-8 cytokine release; [3]) was 80 ± 26 and the “% inhibition over UV treatment” value (IL-8 cytokine release; 1% topical) was 40%. For the same compound, the “UV-induced inflammation (result in words)” value (IL-8 cytokine release) was “strong reduction in UV-induced inflammation”, the “Collagen1A Normalized Fold-change in PCR (Mean)” value (Collagen1A; with TNF-α (10 ng/mL)) was 1.36 and the “Collagen1A Normalized Fold-change in PCR (Mean)” value (Collagen1A; without TNF-α) was 2.96. For the same compound, the “expression of genes associated with collagen production (result in words)” value (Collagen1A; summary of Tables 3A and 3B) was “increased the expression of genes associated with collagen and elastin production”, the “Elastin Normalized Fold-change in PCR (Mean)” value (Elastin; with TNF-α (10 ng/mL)) was 1.12 and the “Elastin Normalized Fold-change in PCR (Mean)” value (Elastin; without TNF-α) was 6.23. The “expression of genes associated with elastin production (result in words)” value (Elastin; summary of Tables 3A and 3B) was “increased the expression of genes associated with collagen and elastin production”, the “Mean of MMP-9 Release” value (MMP-9; 0.25% w/v topical (2 mg/cm^2)) was 1392 ± 627 ng/mL and the “Mean of MMP-9 Release” value (MMP-9; 0.5% w/v topical (2 mg/cm^2)) was 1012 ± 249 ng/mL. The inhibition at 0.25 % strength (MMP-9; Homo sapiens, 0.25% w/v topical, TNF-α 100 ng/mL, read-out: Percent Inhibition of MMP-9 Production (over TNF-α alone)) was 60.9%, the inhibition at 0.5 % strength (MMP-9; Homo sapiens, 0.5% w/v topical, TNF-α 100 ng/mL, read-out: Percent Inhibition of MMP-9 Production (over TNF-α alone)) was 71.6% and the “formation of TNF-α induced MMP-9 (result in words)” value (MMP-9; summary of Table 4) was “inhibited the formation of TNF-α induced MMP-9”.
In the case of `Oc1ccc(C=Cc2cc(O)cc(C=Cc3ccc(O)cc3)c2)cc1` [1-hydroxyl 3,5-bis(4′hydroxylstyryl)benzene], the “Change … (Normalized to 100)” value (IL-8 cytokine release; [2]) is reported as 85 ± 14, the “% inhibition over UV treatment” value (IL-8 cytokine release; 0.5% topical) is reported as 37% and the “Change … (Normalized to 100)” value (IL-8 cytokine release; [3]) is reported as 81 ± 31. The “% inhibition over UV treatment” value (IL-8 cytokine release; 1% topical) was 40% and the “UV-induced inflammation (result in words)” value (IL-8 cytokine release) was “strong reduction in UV-induced inflammation”.
